# In patent US7691849B2, “Carboxamidine derivatives and their use in the treatment of vascular diseases” (CytRx Corporation, priority 2002, dated 2010):
# What was measured:
# [1] = system: human umbilical vein endothelial cells (HUVEC); test: Wounding migration assay in endothelial cell culture; type: cell-based; conditions: wounded HUVEC monolayer, 24 hours after wounding, active agent 10^-6 M
# From the text: The following compounds of the Invention are especially preferable: • 1. N-[3-(1-piperidinyl)propoxy]-pyridin-1-oxide-3-carboxamidine • 2. N-[3-(1-piperidinyl)propoxy]-pyridin-1-oxide-3-carboximidoyl chloride • 3. N-[2-hydroxy-3-(1-piperidinyl)propoxy]-N′-n-butyl-pyridin-1-oxide-4-carboxamidine • 4. N-[3-(1-oxido-1-piperidinyl)propoxy]-3-nitro-benzimidoyl-chloride dihydrate • 5. 2-chloro-N-[3-(4-oxido-4-morpholinyl)propoxy]-benzimidoyl chloride • 6. (R,S)-5,6-dihydro-5-[(1-piperidinyl)methyl]-3-(1-oxido-3-pyridyl)-4H-1,2,4-oxadiazine • 7. 5,6-dihydro-5-[(4-benzyl-1-piperidinyl)methyl]-3-(3-pyridyl)-4H-1,2,4-oxadiazine • 8. (R) or (S)-5,6-dihydro-5-[(2-oxo-1-piperidinyl)methyl]-3-(3-pyridyl)-4H-1,2,4-oxadiazine • 9. (+)-5,6-dihydro-5-[(1-piperidlnyl)methyl]-3-(1-oxido-3-pyridyl)4H-1,2,4-oxadiazine • 10. (R) or (S)-5,6-dihydro-5-[(1-oxido-1-piperidinyl)methyl]-3-(1-oxido-3-pyridyl)-4H-1,2,4-oxadiazine • 11. 5.6-dihydro-5-[(4-hydroxy-1-piperidinyl)methyl]-3-(3-pyridyl)-4H-1,2,4-oxadiazine • 12. N-[2-chloro-3-(1-piperidinly)propoxyl]-benzimidoyl chloride hydrochloride • 13. N-[2-hydroxy-3-(1-piperidinyl)propoxy]-pyridin-1-oxide-3-carboxamide • The biological effects of the compounds of the invention were tested by the following experiments: • Wounding migration assay in endothelial cell culture
# The effect of the compounds of the invention on the wounded monolayers of human umbilical vein endothelial cells (HUVEC) were studied in a cell culture system (in vitro). After reaching confluence, the HUVEC cells were wounded according to the method of Yamamura et al (J. Surgical Res. 63, 349-354, 1996). The number of migrated cells were registered using computerized image analysis 24 hours after wounding in the absence and presence of the active agents under testing in a concentration of 10^−6 M. The active ingredient described in publication no. WO 98/06400, namely 5,6-dihydro-5-(1-piperidinyl)-methyl-3-(3-pyridyl)-4H-1,2,4-oxadiazine was used as reference compound.
# [2] = system: thoracic aorta of SH rats; test: Morphological testing of the thoracic aortas with electron microscopy; type: in vivo, rat; design: key: 1 was used to refer to cases where no regeneration was observable; 2 refers to weak; 3 to average; 4 to good; 5 to strong regeneration; conditions: SH rats treated one month, scale of 1 to 5, electron microscopy of thoracic aorta
# Experimental: (§1) Three-month-old, genetically hypertonic (SH) Wistar Okamoto rats were treated for one month with various test compounds. Thereafter the functional and morphological tests were performed.
# Morphological Testing of the Thoracic Aortas with Electron Microscopy
# The test was performed according to the procedure known from the literature (Br. J. of Pharmacol., 1995; 115, 415-420). 1 mm^2 pieces of the aorta wall was cut out of the thoracic aorta of the rats, and were then fixed with 2.5% glutaraldehyde at room temperature for 2 hours. This was followed by a post-fixation with 1% osmium tetroxide for 1 hour. Afterwards, the tissue pieces were dehydrated with ethanol, and embedded in Durcupan ACM. The samples were evaluated qualitatively based on the images recorded on a Hitachi 7100 electron microscope.
# On the scale, 1 was used to refer to cases where no regeneration was observable, 2 refers to weak, 3 to average, 4 to good, and 5 to strong regeneration.
# [3] = system: thoracic aorta of SH rats; test: Vaso-relaxing effect on the thoracic aorta of SH rats treated for one month (in vitro testing of aorta rings); type: in vivo, rat; conditions: aorta rings contracted with 10^-6 M methoxamine
# Experimental: In the following, we give the results of the test of blood vessel relaxing effect, performed in vitro on rat vessels, and also the morpholocial results of the thoracic aorta.
# as §1
# The Vaso-relaxing Effect of the Compounds of the Invention on the Thoracic Aorta of SH Rats (in Vitro Testing)
# The test was performed by the method known from the literature [Japan J. Pharmacol., 59, 339-347 (1992)]. The SH rats were anesthetized with Nembutal (40 mg/kg, i. p.), then the thoracic aorta was removed and placed in oxygenized (95% O2+5% CO2) Krebs-Henseleit solution. The composition of the solution (mM): NaCl 118, KCl 4,7, CaCl2 2,52, MgSO4 1,64, NaHCO3 24,88, KH2PO4 1,18, glucose 5,5. The 3-mm-long aorta rings were suspended in a 20 ml organ bath of 37° C. The resting tension was 1 g, which was maintained throughout the equilibration. During the 1 hour equilibration, the medium was changed in every 20 minutes. The vessels were contracted with 10^−6 M methoxamine (approx. 80% of maximal contraction). After reaching the maximal contraction, we tested the vasodilation resulting as the effect of the acetylcholine (Ach) (10^−6-10^−4 M), which informed us about the condition of the endothelium of the vessel wall. The contraction force was measured by an isometric strain gauge (SG-01D, Experimentia Ltd), and was registered on an OH-850 polygraph (Radelkis). At this time again, 5,6-dihydro-5-(1-piperidinyi)-methyl-3-(3-pyridyl)-4H-1,2,4-oxadiazine as described in WO 98/06400 was used as a reference compound.
SMILES,number of migrated cells [1] [cell/mm^2],"vessel relaxing effect (vasodilation by acetylcholine) ([3]; Ach 10^-4 M, 20 mg/kg)","vessel relaxing effect (vasodilation by acetylcholine) ([3]; Ach 10^-5 M, 20 mg/kg)","vessel relaxing effect (vasodilation by acetylcholine) ([3]; Ach 10^-6 M, 20 mg/kg)",Degree of regeneration ([2]; 20 mg/kg p.o.),further results
"O=C1CCCCN1CC1CON=C(c2cccnc2)N1 (single isomer, unassigned) [Compound 8, (R) or (S)-5,6-dihydro-5-[(2-oxo-1-piperidinyl)methyl]-3-(3-pyridyl)-4H-1,2,4-oxadiazine]",48,89.2,88.0,80.3,–,Degree of regeneration ([2]; 5 mg/kg p.o.): 5
"[O-][n+]1cccc(C2=NOCC(CN3CCCCC3)N2)c1 (single isomer, unassigned; (+)) [Compound 9, (+)-5,6-dihydro-5-[(1-piperidinyl)methyl]-3-(1-oxido-3-pyridyl)-4H-1,2,4-oxadiazine]",52,–,–,–,–,"Degree of regeneration ([2]; 5 mg/kg p.o.): 5; vessel relaxing effect (vasodilation by acetylcholine) ([3]; Ach 10^-4 M, 5 mg/kg): 93.2; vessel relaxing effect (vasodilation by acetylcholine) ([3]; Ach 10^-5 M, 5 mg/kg): 87.9; vessel relaxing effect (vasodilation by acetylcholine) ([3]; Ach 10^-6 M, 5 mg/kg): 87.0"
"O.O.O=[N+]([O-])c1cccc(C(Cl)=NOCCC[N+]2([O-])CCCCC2)c1 [Compound 4, N-[3-(1-oxido-1-piperidinyl)propoxy]-3-nitro-benzimidoyl-chloride dihydrate]",45,–,–,–,5,"vessel relaxing effect (vasodilation by acetylcholine) ([3]; Ach 10^-4 M, 5 mg/kg): 88.1; vessel relaxing effect (vasodilation by acetylcholine) ([3]; Ach 10^-5 M, 5 mg/kg): 84.9; vessel relaxing effect (vasodilation by acetylcholine) ([3]; Ach 10^-6 M, 5 mg/kg): 82.5"
"OC1CCN(CC2CON=C(c3cccnc3)N2)CC1 (stereo not shown) [Compound 11, 5.6-dihydro-5-[(4-hydroxy-1-piperidinyl)methyl]-3-(3-pyridyl)-4H-1,2,4-oxadiazine]",51,–,–,–,–,"Degree of regeneration ([2]; 10 mg/kg p.o.): 4; vessel relaxing effect (vasodilation by acetylcholine) ([3]; Ach 10^-4 M, 10 mg/kg): 86.0; vessel relaxing effect (vasodilation by acetylcholine) ([3]; Ach 10^-5 M, 10 mg/kg): 85.1; vessel relaxing effect (vasodilation by acetylcholine) ([3]; Ach 10^-6 M, 10 mg/kg): 79.7"
"Cl.ClC(=NOCC(Cl)CN1CCCCC1)c1ccccc1 (stereo not shown) [Compound 12, N-[2-chloro-3-(1-piperidinly)propoxyl]-benzimidoyl chloride hydrochloride]",60,80.4,83.5,82.3,3,–
"O=C(NOCC(O)CN1CCCCC1)c1ccc[n+]([O-])c1 (stereo not shown) [Compound 13, N-[2-hydroxy-3-(1-piperidinyl)propoxy]-pyridin-1-oxide-3-carboxamide]",54,–,–,–,4,"vessel relaxing effect (vasodilation by acetylcholine) ([3]; Ach 10^-4 M, dose not given): 95.2; vessel relaxing effect (vasodilation by acetylcholine) ([3]; Ach 10^-5 M, dose not given): 90.3; vessel relaxing effect (vasodilation by acetylcholine) ([3]; Ach 10^-6 M, dose not given): 88.4"
"c1cncc(C2=NOCC(CN3CCCCC3)N2)c1 (stereo not shown) [Reference, 5,6-dihydro-5-(1-piperidinyl)-methyl-3-(3-pyridyl)-4H-1,2,4-oxadiazine, reference compound]",30,81.7,80.2,77.4,–,–
